From US9102638B2, “Amidobenzothiazoles and process for the preparation thereof” (COUNCIL OF SCIENTIFIC & INDUSTRIAL RESEARCH, priority 2011, dated 2015)

Legend:
Type in all cases: cell-based
A498 = assay: In vitro cytotoxicity, NCI screen: A498 (Renal); conditions: Homo sapiens; A498, Renal panel, NCI protocol; read-out: GI50 values (μM conc.)
Experimental: (§1) The in vitro anticancer activity studies for these amidobenzothiazoles were carried out at the National Cancer Institute, Maryland, USA.
(§2) The amidobenzothiazoles have been tested against sixty human tumor cell lines derived from nine cancer types (leukemia cancer cell line, non-small cell lung cancer cell line, colon cancer cell line, CNS cancer cell line, melanoma cancer cell line, ovarian cancer cell line, renal cancer cell line, prostate cancer cell line and breast cancer cell lines). For these compounds results are expressed in GI50 values of that particular cancer cell at micro molar (μM) concentration as per NCI protocol.

IGROV1 = assay: In vitro cytotoxicity, NCI screen: IGROV1 (Ovarian); conditions: Homo sapiens, IGROV-1; IGROV1, Ovarian panel, NCI protocol; read-out: GI50 values (μM conc.)
Experimental: as §1, §2

OVCAR-5 = assay: In vitro cytotoxicity, NCI screen: OVCAR-5 (Ovarian); conditions: Homo sapiens; OVCAR-5, Ovarian panel, NCI protocol; read-out: GI50 values (μM conc.)
Experimental: as §1, §2

MDA-MB-231/ATCC = assay: In vitro cytotoxicity, NCI screen: MDA-MB-231/ATCC (Breast); conditions: Homo sapiens, Breast panel, NCI protocol, read-out: GI50 values (μM conc.)
Experimental: as §1, §2

RXF 393 = assay: In vitro cytotoxicity, NCI screen: RXF 393 (Renal); conditions: Homo sapiens; RXF 393, Renal panel, NCI protocol; read-out: GI50 values (μM conc.)
Experimental: as §1, §2

LOX IMVI = assay: In vitro cytotoxicity, NCI screen: LOX IMVI (Melanoma); conditions: Homo sapiens, Melanoma panel, NCI protocol, read-out: GI50 values (μM conc.)
Experimental: as §1, §2

DU-145 = assay: In vitro cytotoxicity, NCI screen: DU-145 (Prostate); conditions: Homo sapiens, read-out: GI50 values (μM conc.)
Experimental: as §1, §2

T-47D = assay: In vitro cytotoxicity, NCI screen: T-47D (Breast); conditions: Homo sapiens, T47D, Breast panel, NCI protocol, read-out: GI50 values (μM conc.)
Experimental: as §1, §2

SK-MEL-2 = assay: In vitro cytotoxicity, NCI screen: SK-MEL-2 (Melanoma); conditions: Homo sapiens; SK-MEL-2, Melanoma panel, NCI protocol; read-out: GI50 values (μM conc.)
Experimental: as §1, §2

HT29 = assay: In vitro cytotoxicity, NCI screen: HT29 (Colon); conditions: Homo sapiens, HT-29; HT29, Colon panel, NCI protocol; read-out: GI50 values (μM conc.)
Experimental: as §1, §2

M14 = assay: In vitro cytotoxicity, NCI screen: M14 (Melanoma); conditions: Homo sapiens; M14, Melanoma panel, NCI protocol; read-out: GI50 values (μM conc.)
Experimental: as §1, §2

UACC-62 = assay: In vitro cytotoxicity, NCI screen: UACC-62 (Melanoma); conditions: Homo sapiens; UACC-62, Melanoma panel, NCI protocol; read-out: GI50 values (μM conc.)
Experimental: as §1, §2

SF-268 = assay: In vitro cytotoxicity, NCI screen: SF-268 (CNS); conditions: Homo sapiens, read-out: GI50 values (μM conc.)
Experimental: as §1, §2

K-562 = assay: In vitro cytotoxicity, NCI screen: K-562 (Leukemia); conditions: Homo sapiens, K562; read-out: GI50 values (μM conc.)
Experimental: as §1, §2

NCI-H460 = assay: In vitro cytotoxicity, NCI screen: NCI-H460 (Non-small cell lung); conditions: Homo sapiens; NCI-H460, Non-small cell lung panel, NCI protocol; read-out: GI50 values (μM conc.)
Experimental: as §1, §2

SNB-19 = assay: In vitro cytotoxicity, NCI screen: SNB-19 (CNS); conditions: Homo sapiens; SNB-19, CNS panel, NCI protocol; read-out: GI50 values (μM conc.)
Experimental: as §1, §2

HCC-2998 = assay: In vitro cytotoxicity, NCI screen: HCC-2998 (Colon); conditions: Homo sapiens; HCC-2998, Colon panel, NCI protocol; read-out: GI50 values (μM conc.)
Experimental: as §1, §2

HCT-15 = assay: In vitro cytotoxicity, NCI screen: HCT-15 (Colon); conditions: Homo sapiens; HCT-15, Colon panel, NCI protocol; read-out: GI50 values (μM conc.)
Experimental: as §1, §2

UO-31 = assay: In vitro cytotoxicity, NCI screen: UO-31 (Renal); conditions: Homo sapiens; UO-31, Renal panel, NCI protocol; read-out: GI50 values (μM conc.)
Experimental: as §1, §2

SN12C = assay: In vitro cytotoxicity, NCI screen: SN12C (Renal); conditions: Homo sapiens, Renal panel, NCI protocol, read-out: GI50 values (μM conc.)
Experimental: as §1, §2

SR = assay: In vitro cytotoxicity, NCI screen: SR (Leukemia); conditions: Homo sapiens, Leukemia panel, NCI protocol, read-out: GI50 values (μM conc.)
Experimental: as §1, §2

SK-MEL-5 = assay: In vitro cytotoxicity, NCI screen: SK-MEL-5 (Melanoma); conditions: Homo sapiens; SK-MEL-5, Melanoma panel, NCI protocol; read-out: GI50 values (μM conc.)
Experimental: as §1, §2

SF-539 = assay: In vitro cytotoxicity, NCI screen: SF-539 (CNS); conditions: Homo sapiens, read-out: GI50 values (μM conc.)
Experimental: as §1, §2

NCI/ADR-RES = assay: In vitro cytotoxicity, NCI screen: NCI/ADR-RES (Ovarian); conditions: Homo sapiens, Ovarian panel, NCI protocol, read-out: GI50 values (μM conc.)
Experimental: as §1, §2

KM12 = assay: In vitro cytotoxicity, NCI screen: KM12 (Colon); conditions: Homo sapiens; KM12, Colon panel, NCI protocol; read-out: GI50 values (μM conc.)
Experimental: as §1, §2

MALME-3M = assay: In vitro cytotoxicity, NCI screen: MALME-3M (Melanoma); conditions: Homo sapiens, Melanoma panel, NCI protocol, read-out: GI50 values (μM conc.)
Experimental: as §1, §2

NCI-H226 = assay: In vitro cytotoxicity, NCI screen: NCI-H226 (Non-small cell lung); conditions: Homo sapiens; NCI-H226, Non-small cell lung panel, NCI protocol; read-out: GI50 values (μM conc.)
Experimental: as §1, §2

COLO-205 = assay: In vitro cytotoxicity, NCI screen: COLO-205 (Colon); conditions: Homo sapiens; COLO-205, Colon panel, NCI protocol; read-out: GI50 values (μM conc.)
Experimental: as §1, §2

CCRF-CEM = assay: In vitro cytotoxicity, NCI sixty cell line screen: CCRF-CEM (Leukemia); conditions: Homo sapiens, Leukemia panel, NCI protocol, read-out: GI50 values (μM conc.)
Experimental: as §1, §2

NCI-H23 = assay: In vitro cytotoxicity, NCI screen: NCI-H23 (Non-small cell lung); conditions: Homo sapiens; NCI-H23, Non-small cell lung panel, NCI protocol; read-out: GI50 values (μM conc.)
Experimental: as §1, §2

MDA-MB-435 = assay: In vitro cytotoxicity, NCI screen: MDA-MB-435 (Melanoma); conditions: Homo sapiens; MDA-MB-435, Melanoma panel, NCI protocol; read-out: GI50 values (μM conc.)
Experimental: as §1, §2

SK-MEL-28 = assay: In vitro cytotoxicity, NCI screen: SK-MEL-28 (Melanoma); conditions: Homo sapiens; SK-MEL-28, Melanoma panel, NCI protocol; read-out: GI50 values (μM conc.)
Experimental: as §1, §2

| Structure (SMILES) | GI50 (A498) | GI50 (IGROV1) | GI50 (OVCAR-5) | GI50 (MDA-MB-231/ATCC) | GI50 (RXF 393) | GI50 (LOX IMVI) | GI50 (DU-145) | GI50 (T-47D) | GI50 (SK-MEL-2) | GI50 (HT29) | GI50 (M14) | GI50 (UACC-62) | GI50 (SF-268) | GI50 (K-562) | GI50 (NCI-H460) | GI50 (SNB-19) | GI50 (HCC-2998) | GI50 (HCT-15) | GI50 (UO-31) | GI50 (SN12C) | further results |
| --- | --- | --- | --- | --- | --- | --- | --- | --- | --- | --- | --- | --- | --- | --- | --- | --- | --- | --- | --- | --- | --- |
| COc1ccc2nc(NC(=O)COc3cc(/C=C\c4cc(OC)c(OC)c(OC)c4)ccc3OC)sc2c1 [Compound 8g, N1-(6-methoxy-1,3-benzothiazol-2-yl)-2-{2-methoxy-5-[(Z)-2-(3,4,5-trimethoxyphenyl)-1-ethenyl]phenoxy}acetamide] | 3.5 µM | 7 µM | 5.89 µM | 5.4 µM | 2.5 µM | 4.17 µM | 2.04 µM | 4.03 µM | 4.07 µM | 3.34 µM | 4.33 µM | 5.93 µM | 4.31 µM | 3.6 µM | 3.73 µM | 6.3 µM | 7.34 µM | 2.89 µM | 4.31 µM | 5.75 µM | GI50 (SR): 3.69 µM; GI50 (SK-MEL-5): 2.68 µM; GI50 (SF-539): 2.84 µM; GI50 (NCI/ADR-RES): 2.3 µM; GI50 (KM12): 3.12 µM; GI50 (MALME-3M): > 100 µM; GI50 (NCI-H226): 4.51 µM; GI50 (COLO-205): 3.89 µM; GI50 (CCRF-CEM): 3.87 µM; GI50 (NCI-H23): 3.91 µM; GI50 (MDA-MB-435): 1.16 µM; GI50 (SK-MEL-28): 4.41 µM |
| COc1ccc(/C=C\c2cc(OC)c(OC)c(OC)c2)cc1OCC(=O)Nc1nc2ccc(C(F)(F)F)cc2s1 [Compound 8i, N1-(6-(trifluoromethyl)-1,3-benzothiazol-2-yl)-2-{2-methoxy-5-[(Z)-2-(3,4,5-trimethoxyphenyl)-1-ethenyl]phenoxy}acetamide] | 2.81 µM | 4.48 µM | 5.98 µM | 3.38 µM | 2.27 µM | 4.01 µM | 2.51 µM | 4.79 µM | 3.98 µM | 14.9 µM | 3.58 µM | 3.9 µM | 3.85 µM | 3.3 µM | 3.55 µM | 5.03 µM | 4.23 µM | 3.24 µM | 3.59 µM | 4.43 µM | GI50 (SR): 3.35 µM; GI50 (SK-MEL-5): 2.84 µM; GI50 (SF-539): 2.66 µM; GI50 (NCI/ADR-RES): 2.12 µM; GI50 (KM12): 3.14 µM; GI50 (MALME-3M): > 100 µM; GI50 (NCI-H226): 3.17 µM; GI50 (COLO-205): 17.1 µM; GI50 (CCRF-CEM): 4.27 µM; GI50 (NCI-H23): 3.9 µM; GI50 (MDA-MB-435): 1.84 µM; GI50 (SK-MEL-28): 3 µM |
| COc1ccc(/C=C/C(=O)c2cc(OC)c(OC)c(OC)c2)cc1OCC(=O)Nc1nc2ccc(OC(F)(F)F)cc2s1 [Compound 9j, N1-(6-(trifluoromethoxy)-1,3-benzothiazol-2-yl)-2-{2-methoxy-5-[(E)-3-oxo-3-(3,4,5-trimethoxyphenyl)-1-propenyl]phenoxy}acetamide] | 7.4 µM | 2.54 µM | 4.76 µM | 2.01 µM | 1.58 µM | 0.47 µM | 1.56 µM | 3.08 µM | 4.97 µM | 3.66 µM | 1.72 µM | 9.52 µM | 1.2 µM | 0.43 µM | 2.43 µM | 1.58 µM | 6.18 µM | 0.4 µM | 1.61 µM | 1.74 µM | GI50 (SR): 0.39 µM; GI50 (SK-MEL-5): 2.03 µM; GI50 (SF-539): 0.29 µM; GI50 (NCI/ADR-RES): 0.49 µM; GI50 (KM12): 1.51 µM; GI50 (MALME-3M): 2.69 µM; GI50 (NCI-H226): 3.35 µM; GI50 (COLO-205): 6.37 µM; GI50 (CCRF-CEM): 2.5 µM; GI50 (NCI-H23): 2.15 µM; GI50 (MDA-MB-435): 0.3 µM; GI50 (SK-MEL-28): 3.31 µM |
